# Results reported in patent US20060293227A1, “Cosmetic compositions and methods using transforming growth factor-beta mimics” (priority 2005, published 2006).
# Where no end group is shown, it is not given here. [ ]: non-standard residue; d: D form. NMeA = CN[C@@H](C)C(=O)O; Abu = CC[C@H](N)C(=O)O; Aib = CC(C)(N)C(=O)O
# Legend:
# [1] = system: Mv-1-Lu mink lung epithelial cells; experiment: Inhibition of DNA synthesis ([3H]thymidine incorporation) of Mv-1-Lu mink lung epithelial cells; type: cell-based; settings: for Inhib by new peptide/Inhib by cytomodulin: 3H-thymidine incorporation, MV-1-Lu cells, cytomodulin at same concentration; for 3H-Radioactivity / % Inhibition of incorporation of 3H-thymidine: MV-1 Lu cells; for Inhibition of DNA synthesis / proliferation of Mv-1-Lu cells (in words): thymidine incorporation, cytomodulin at 10^-9 to 10^-6 M
# Procedure: The effect of TGF-β and cytomodulin were evaluated by determining the rate of […] incorporation into total acid-insoluble DNA and cell number. See generally, Sampath et al., J. Biol. Chem., 267, pp. 20352-20362 (1992). DNA synthesis rates were determined in triplicate cultures after 24 hour treatment with various concentrations (10^−9 M to 10^−6 M) of either TGF-β or cytomodulin (which was synthesized by the Merrifield method) by adding [methyl-^3H]thymidine (2uCi/ml, 80 Ci/mmol) for 6 hours before the termination of the culture. Incorporation was terminated by aspiration of the medium, and after washing three times with phosphate-buffered saline, the trichloroacetic acid (10%)-precipitated radioactive DNA was extracted with 1.0% (w/v) sodium dodecyl sulfate, 0.1 M NaOH and quantitated by liquid scintillation counting. For cell number determination, 1×10^5 cells were plated in flasks in MEM containing 10% FBS, and after 24 hours, the growth medium was replaced with serum-free medium containing various conceptions of TGF-β and cytomodulin. Triplicate cultures were harvested every 24 hours for the duration of 7 days, and the cell number was determined by counting cells released by trypsin digestion in a fixed volume hemacytometer.
# The numbers shown at the various concentration are the ratio of the inhibition rate of the peptide being tested over the inhibition rate of cytomodulin (SEQ ID NO: 1) at the same concentration.
# Tests for bioactivity were conducted as described above for DNA inhibition. In summary, the cytomodulin analogs listed in Table 3 were all found active as agonists and thus, as defined herein, are considered TGF-β mimics.
# eyelids = system: eyelids; set-up: species or system human; settings: in vivo
# Source text: A person, applied a lotion comprising cytomodulin (SEQ ID NO: 1) at a concentration of about 0.001%, to their eyelids twice per week for 2 months.
# skin [2] = system: skin; set-up: species or system human; settings: in vivo
# Source text: A person, of light complexion, applied a lotion comprising cytomodulin (SEQ ID NO: 1) at a concentration of about 0.001%, in EUCERIN™, to one side of their face a at a frequency of 1-2 times per week, typically at night before sleep, leaving uncovered while leaving the other side of their face without application of the TGF-β lotion. […] For example, crows feet became more shallow and the skin and face looked fuller and smoother. Color and skin tone became more youthful in appearance. […] After 18 days of treatment, the difference in appearance between the treated and untreated sides of the face was noticeable enough that the subject began to apply the topical composition to the entire face.
# The same subject applied the CM-1 lotion to the back of one hand daily, while leaving the back of the other hand untreated. The treatment continued for several weeks.
# skin [3] = system: skin; set-up: species or system human; settings: in vivo; remark: listed apart in the source
# Source text: A person, with very dry, wind-burnt skin, many fine lines, and the beginning of wrinkles, applied a lotion comprising cytomodulin (SEQ ID NO: 1) at a concentration of about 0.001% on left side of their face only, three days per week. […] Within 3 weeks there was a a noticeable difference between the two sides of the face, with the right side having more fine lines appearing much drier and weather-worn than the left (treated) side. […] The subject stopped application after 3 months because of the difference in the appearance of the two side of the face A person applied a lotion comprising cytomodulin (SEQ ID NO: 1) at a concentration of about 0.001% on right side of their neck only, daily. […] The right side of the neck is noticeably different than the left side of the neck. […] A person with noticebly wrinkled and thickened skin on the neck applied a lotion comprising cytomodulin (SEQ ID NO: 1) at a concentration of about 0.001% to their neck once every four days. The subject also used Lancome makeup with sunscreen and Oil of Olay moisturizer for sensitive skin.
# human dermal fibroblasts = experiment: Expression of type I collagen, TGF-β and collagenase in human dermal fibroblasts; type: cell-based; settings: for Expression of TGF-β / Expression of collagenase: human dermal fibroblasts; for Expression of type I collagen: human dermal fibroblasts (primary cultures of neo-natal cells for cytomodulin)
# NRK-49 F fibroblasts [4] = experiment: Growth and colony formation by NRK-49 F fibroblasts in soft agar; type: cell-based; settings: 100 nM in Example 2, with EGF and PDGF
# Procedure: The original assay for TGF-β, the ability to promote anchorage independent growth of normal fibroblasts is still one of the hallmarks of TGF-β activity. NRK-49 F fibroblasts were grown at 37° C. in DEM supplemented with 10% fetal calf serum. […] To this, either 100 nM TGF-β (positive control) or 100 nM cytomodulin was added. NRK49 F fibroblasts (5×10^4 cells/mi) were mixed with 0.3% agar were plated on the bottom of 35 mm culture dishes. Colony formation was observed starting on day 3 of culture.
# TGF-β activity = experiment: TGF-β like activity, overall statement from the assays used; type: cell-based; settings: by the assays used
# [5] = system: human osteogenic sarcoma (HOS) cell line; experiment: Expression of type I collagen, TGF-β, alkaline phosphatase and osteonectin in HOS cells; type: cell-based
# NRK-49 F fibroblasts [6] = settings: literature statement (Massagu, J. Biol. Chem. 1984); cited from earlier work
substance,measurement,setting,value
A-N-V-A-E-K (ANVAEK) [SEQ ID NO: 15],Inhib by new peptide/Inhib by cytomodulin,[1]; concentration 10 nM,0.80
same,Inhib by new peptide/Inhib by cytomodulin,[1]; concentration 100 nM,1.00
"ANVAENA [cytomodulin, Ala-Asn-Val-Ala-Glu-Asn-Ala]",Adverse effects,eyelids,No adverse effects
same,Negative effects of application,skin [2],No negative effects
same,Accidental contact of the lotion with the eyes,skin [3],no apparent problem or irritation
same,Adverse effects,skin [3],No adverse effects
same,Adverse effects (subject's report),skin [3],no adverse effects
L-(Abu)-A-E-A-K (L[Abu]AEAK) [SEQ ID NO: 6],3H-Radioactivity,[1]; peptide 1 nM,2.02 10^3 dpm
same,% Inhibition of incorporation of 3H-thymidine,[1]; peptide 1 nM,33%
same,3H-Radioactivity,[1]; peptide 5 nM,1.97 10^3 dpm
same,% Inhibition of incorporation of 3H-thymidine,[1]; peptide 5 nM,35%
L-(Aib)-A-E-A-K (L[Aib]AEAK) [SEQ ID NO: 4],3H-Radioactivity,[1]; peptide 5 nM,2.31 10^3 dpm
same,% Inhibition of incorporation of 3H-thymidine,[1]; peptide 5 nM,35%
same,3H-Radioactivity,[1]; peptide 50 nM,1.94 10^3 dpm
same,% Inhibition of incorporation of 3H-thymidine,[1]; peptide 50 nM,46%
same,3H-Radioactivity,[1]; peptide 100 nM,1.44 10^3 dpm
same,% Inhibition of incorporation of 3H-thymidine,[1]; peptide 100 nM,60%
same,3H-Radioactivity,[1]; peptide 500 nM,1.61 10^3 dpm
same,% Inhibition of incorporation of 3H-thymidine,[1]; peptide 500 nM,55%
same,% Inhibition of incorporation of 3H-thymidine,[1]; peptide 1 mM (so in the source),27%
same,3H-Radioactivity,"[1]; peptide 1 mM (so in the source), control without peptide 3.57",2.60 10^3 dpm
L-I-(Nme-A)-E-A-K (LI[NMeA]EAK) [SEQ ID NO: 5],3H-Radioactivity,[1]; peptide 1 nM,1.61 10^3 dpm
same,% Inhibition of incorporation of 3H-thymidine,[1]; peptide 1 nM,47%
same,3H-Radioactivity,[1]; peptide 5 nM,1.76 10^3 dpm
same,% Inhibition of incorporation of 3H-thymidine,[1]; peptide 5 nM,42%
same,3H-Radioactivity,[1]; peptide 50 nM,1.60 10^3 dpm
same,% Inhibition of incorporation of 3H-thymidine,[1]; peptide 50 nM,41%
same,3H-Radioactivity,[1]; peptide 100 nM,1.81 10^3 dpm
same,% Inhibition of incorporation of 3H-thymidine,[1]; peptide 100 nM,40%
same,3H-Radioactivity,[1]; peptide 500 nM,1.42 10^3 dpm
same,% Inhibition of incorporation of 3H-thymidine,[1]; peptide 500 nM,53%
L-I-A-D-A-K (LIADAK) [SEQ ID NO: 9],Inhib by new peptide/Inhib by cytomodulin,[1]; concentration 1 nM,0.45
same,Inhib by new peptide/Inhib by cytomodulin,[1]; concentration 10 nM,0.87
same,Inhib by new peptide/Inhib by cytomodulin,[1]; concentration 100 nM,1.14
same,Inhib by new peptide/Inhib by cytomodulin,[1]; concentration 1000 nM,1.25
L-I-A-E-A-A (LIAEAA) [SEQ ID NO: 11],Inhib by new peptide/Inhib by cytomodulin,[1]; concentration 1 nM,1.16
same,Inhib by new peptide/Inhib by cytomodulin,[1]; concentration 10 nM,1.00
same,Inhib by new peptide/Inhib by cytomodulin,[1]; concentration 100 nM,1.17
same,Inhib by new peptide/Inhib by cytomodulin,[1]; concentration 1000 nM,1.85
L-I-A-E-A-K (LIAEAK) [L2],Expression of TGF-β,human dermal fibroblasts,increased the expression
same,Expression of collagenase,human dermal fibroblasts,decreased the expression
same,Expression of type I collagen,human dermal fibroblasts,increased the expression
same,Growth and colony formation in soft agar,NRK-49 F fibroblasts [4],promoted the growth
same,TGF-β like activity (overall),TGF-β activity,at least as much TGF-β like activity as cytomodulin
same,Expression of TGF-β,[5],increased the expression
same,Expression of alkaline phosphatase,[5],increased the expression
same,Expression of type I collagen,[5],increased the expression
same,Inhibition of DNA synthesis / proliferation of Mv-1-Lu cells (in words),[1],inhibited the proliferation
L-I-A-G-E-G (LIAGEG) [SEQ ID NO: 14],Inhib by new peptide/Inhib by cytomodulin,[1]; concentration 1 nM,0.66
same,Inhib by new peptide/Inhib by cytomodulin,[1]; concentration 10 nM,0.85
same,Inhib by new peptide/Inhib by cytomodulin,[1]; concentration 100 nM,1.41
same,Inhib by new peptide/Inhib by cytomodulin,[1]; concentration 1000 nM,1.88
L-I-A-G-G-E (LIAGGE) [SEQ ID NO: 13],Inhib by new peptide/Inhib by cytomodulin,[1]; concentration 1 nM,1.10
same,Inhib by new peptide/Inhib by cytomodulin,[1]; concentration 10 nM,1.33
same,Inhib by new peptide/Inhib by cytomodulin,[1]; concentration 100 nM,1.45
same,Inhib by new peptide/Inhib by cytomodulin,[1]; concentration 1000 nM,1.90
L-I-A-K-G-K (LIAKGK) [SEQ ID NO: 16],Inhib by new peptide/Inhib by cytomodulin,[1]; concentration 10 nM,0.65
same,Inhib by new peptide/Inhib by cytomodulin,[1]; concentration 100 nM,0.67
L-I-A-N-A-K (LIANAK) [SEQ ID NO: 10],Inhib by new peptide/Inhib by cytomodulin,[1]; concentration 1 nM,1.70
same,Inhib by new peptide/Inhib by cytomodulin,[1]; concentration 10 nM,2.00
same,Inhib by new peptide/Inhib by cytomodulin,[1]; concentration 100 nM,1.43
same,Inhib by new peptide/Inhib by cytomodulin,[1]; concentration 1000 nM,3.05
L-I-A-P-E-A (LIAPEA) [L1],Expression of TGF-β,human dermal fibroblasts,increased the expression
same,Expression of collagenase,human dermal fibroblasts,decreased the expression
same,Expression of type I collagen,human dermal fibroblasts,increased the expression
same,Growth and colony formation in soft agar,NRK-49 F fibroblasts [4],promoted the growth
same,TGF-β like activity (overall),TGF-β activity,at least as much TGF-β like activity as cytomodulin
same,Expression of TGF-β,[5],increased the expression
same,Expression of alkaline phosphatase,[5],increased the expression
same,Expression of type I collagen,[5],increased the expression
same,Inhibition of DNA synthesis / proliferation of Mv-1-Lu cells (in words),[1],inhibited the proliferation
L-I-A-Q-A-K (LIAQAK) [SEQ ID NO: 12],Inhib by new peptide/Inhib by cytomodulin,[1]; concentration 1 nM,0.90
same,Inhib by new peptide/Inhib by cytomodulin,[1]; concentration 10 nM,1.10
same,Inhib by new peptide/Inhib by cytomodulin,[1]; concentration 100 nM,0.80
same,Inhib by new peptide/Inhib by cytomodulin,[1]; concentration 1000 nM,1.56
TGF-β,Growth and colony formation in soft agar,NRK-49 F fibroblasts [4],grew colonies
same,Colony formation in the absence of EGF and PDGF,NRK-49 F fibroblasts [6],does not induce colony formation
